Among the data in US7855165B2, “Herbicide composition for paddy field” (Bayer Cropscience AG, priority 2007, dated 2010) are pest or weed control values, retold here.

Test [1] in a line: Test Example 1: effect of the herbicide composition against paddy field weeds (pot test, green house). Particulars: 504 h, read-out: Herbicidal effect (%) BBBBB. The class given is in vivo, annual broad-leaves. From the text: In a green house, seeds or tubers of Monochoria vaginalis Presl, annual broad-leaves (Lindernia procumbens Philcox, Rotala indica Koehne, Elatine triandra Schk, Ammannia multiflora Roxb., etc.), Cyperus serotinus Rottboel, and Sagittaria pygmaea Miq were inoculated to paddy field soil filled in a 500 cm^2 pot and brought to a submerged condition of about 2-3 cm. […] After the treatment, the submerged condition of 3 cm was maintained and the herbicidal effect was studied 3 weeks after the treatment. The herbicidal effect was evaluated as 100% in case of complete death and 0% in case of no effect.
(§1) In the tables, MOOVP represents Monochoria vaginalis Presl, BBBBB represents annual broad-leaves, CYPSE represents Cyperus serotinus Rottboel and SAGPY represents Sagittaria pygmaea Miq.

Test [2] deals with Sagittaria pygmaea Miq. The description is as above. The test is classed as in vivo. Particulars: Sagittaria pygmaea, 504 h, read-out: Herbicidal effect (%) SAGPY.
Source text: (§2) • Component (a) (a-1): compound No. 1 (ref: the aforementioned Table A) • (a-2): compound No. 3 (same as above) • (a-3): compound No. 11 (same as above) • Component (b) the aforementioned (b-1)-(b-15) • Component (c) the aforementioned (c-1)-(c-3) <Preparation of Test Agents> • Carrier: Acetone 5 parts by weight • Surfactant: Benzyloxy polyglycol ether 1 part by weight The above-mentioned carrier and surfactant and 1 part by weight of active compounds (component (a) and component (b) or component (c)) are mixed and the obtained formulations are diluted with water to prepare the test agents of the prescribed chemicals amount (preparations).
(§3) In a green house, seeds or tubers of Monochoria vaginalis Presl, annual broad-leaves (Lindernia procumbens Philcox, Rotala indica Koehne, Elatine triandra Schk, Ammannia multiflora Roxb., etc.), Cyperus serotinus Rottboel, and Sagittaria pygmaea Miq were inoculated to paddy field soil filled in a 500 cm^2 pot and brought to a submerged condition of about 2-3 cm. At 1.5-2 leafstage of each weed prescribed diluted solution of preparation of each active compound and each herbicide in the following table was applied on water surface each singly or simultaneously. After the treatment, the submerged condition of 3 cm was maintained and the herbicidal effect was studied 3 weeks after the treatment. The herbicidal effect was evaluated as 100% in case of complete death and 0% in case of no effect.
as §1

Test [3] has as its system Monochoria vaginalis Presl. The description is as above. The class given is in vivo. Particulars: Pontederia vaginalis, 504 h, read-out: Herbicidal effect (%) MOOVP.
Source text: as §2, §3, §1

Test [4] relates to Cyperus serotinus Rottboel. The test is described as above. The class given is in vivo. Particulars: Cyperus serotinus, 504 h, read-out: Herbicidal effect (%) CYPSE.
Source text: as §2, §3, §1

The mark [5] stands for this setting: 50 g/ha single, 3 weeks after treatment.
Where [6] appears, read: 100 g/ha single, 3 weeks after treatment.
[7] abbreviates: 125 g/ha single, 3 weeks after treatment.
The mark [8] stands for this setting: 250 g/ha single, 3 weeks after treatment.
Where [9] appears, read: 300 g/ha single, 3 weeks after treatment.
Setting [10] is: 600 g/ha single, 3 weeks after treatment.
Setting [11] is: 75 g/ha single, 3 weeks after treatment.
[12] abbreviates: 150 g/ha single, 3 weeks after treatment.
[13] abbreviates: 200 g/ha single, 3 weeks after treatment.
Setting [14] is: 400 g/ha single, 3 weeks after treatment.
Setting [15] is: 2.5 g/ha single, 3 weeks after treatment.
[16] abbreviates: 5 g/ha single, 3 weeks after treatment.
The mark [17] stands for this setting: 20 g/ha single, 3 weeks after treatment.
[18] abbreviates: 40 g/ha single, 3 weeks after treatment.

Like-named read-outs stand apart in the source and are kept apart here.

Take `COc1cnc(OC)n2nc(NS(=O)(=O)c3c(OCC(F)F)cccc3C(F)(F)F)nc12` [(b-5), penoxsulam]: the pest or weed control at 50 g/ha turned out to be 50% in test [1] (setting [5]), 65% in test [2] (setting [5]), 75% in test [3] (setting [5]) and 70% in test [4] (setting [5]). Besides, the pest or weed control at 100 g/ha in test [1] (setting [6]) came out at 90%; in test [2] (setting [6]) it was 85%; in test [3] (setting [6]) it was 90%; in test [4] (setting [6]), 70%.
Turning to `CCCOCCN(C(=O)CCl)c1c(CC)cccc1CC` [(b-2), pretilachlor], the pest or weed control at 125 g/ha worked out at 10% in test [1] (setting [7]), 0% in test [2] (setting [7]), 10% in test [3] (setting [7]) and 0% in test [4] (setting [7]). In addition, the pest or weed control at 250 g/ha in test [1] (setting [8]) came out at 10%; in test [2] (setting [8]), 10%; in test [3] (setting [8]), 20%; in test [4] (setting [8]) it was 0%.
On to `COP(=S)(OC)SCC(=O)N(c1ccc(Cl)cc1)C(C)(C)C` [(b-1), anilofos], for which the pest or weed control at 100 g/ha in test [1] amounted to 0%; in test [2], 10%; in test [3], 10%; in test [4], 0%. In addition, the pest or weed control at 200 g/ha in test [1] was found to be 0%; in test [2] it was 10%; in test [3], 10%; in test [4], 0%.
Turning to `CN(C(=O)COc1nc2ccccc2s1)c1ccccc1` [(b-9), mefenacet], the pest or weed control at 300 g/ha in test [1] (setting [9]) was 30%; in test [2] (setting [9]) it was 10%; in test [3] (setting [9]) it was 65%; in test [4] (setting [9]), 30%. The pest or weed control at 600 g/ha came out at 40% in test [1] (setting [10]), 10% in test [2] (setting [10]), 80% in test [3] (setting [10]) and 30% in test [4] (setting [10]).
On to `CCN(C(=O)n1nnn(-c2ccccc2Cl)c1=O)C1CCCCC1` [(b-8), fentrazamide], for which the pest or weed control at 75 g/ha in test [1] (setting [11]) was 40%; in test [2] (setting [11]), 30%; in test [3] (setting [11]), 40%; in test [4] (setting [11]) it was 30%. The pest or weed control at 150 g/ha stood at 70% in test [1] (setting [12]), 30% in test [2] (setting [12]), 60% in test [3] (setting [12]) and 30% in test [4] (setting [12]).
`CC(C)(NC(=O)C(Br)C(C)(C)C)c1ccccc1` (stereo not drawn) [(b-14), bromobutide]: the pest or weed control at 200 g/ha in test [1] is 20%; in test [2] (setting [13]), 10%; in test [3] (setting [13]), 30%; in test [4] (setting [13]), 40%. Also, the pest or weed control at 400 g/ha was determined as 30% in test [1], 10% in test [2] (setting [14]), 95% in test [3] (setting [14]) and 60% in test [4] (setting [14]).
As to `CCS(=O)(=O)Oc1ccc2c(c1)C(C)(C)CO2` [(b-11), benfuresate], the pest or weed control at 125 g/ha in test [1] was 0%; in test [2] it was 10%; in test [3], 0%; in test [4] it was 20%. The pest or weed control at 250 g/ha in test [1] was 0%; in test [2], 20%; in test [3] it was 0%; in test [4], 70%.
Take `COC(=O)c1ccccc1CS(=O)(=O)NC(=O)Nc1nc(OC)cc(OC)n1` [(b-12), bensulfuron-methyl]: the pest or weed control at 2.5 g/ha in test [1] (setting [15]) is 50%; in test [2] (setting [15]) it was 50%; in test [3] (setting [15]), 30%; in test [4] (setting [15]), 40%. The pest or weed control at 5 g/ha in test [1] (setting [16]) was found to be 60%; in test [2] (setting [16]), 50%; in test [3] (setting [16]) it was 60%; in test [4] (setting [16]), 40%.
With `CC1=C(c2ccccc2)C(=O)N(C(C)(C)c2cc(Cl)cc(Cl)c2)CO1` [(b-10), oxaziclomefone], the pest or weed control at 20 g/ha was found to be 40% in test [1], 0% in test [2] (setting [17]), 10% in test [3] (setting [17]) and 0% in test [4] (setting [17]). Further, the pest or weed control at 40 g/ha in test [1] was 40%; in test [2] (setting [18]), 10%; in test [3] (setting [18]), 20%; in test [4] (setting [18]), 0%.
